Laboratory results taken from patent US20250127774A1, “COMPOUNDS FOR LABELLING NUCLEIC ACID AND USES THEREOF” (THE ROYAL INSTITUTION FOR THE ADVANCEMENT OF …, priority 2022, published 2025).

Experiments:
MOLM-13 cells [1] = assay: Resazurin combination toxicity assay; assay type: cell-based, human; details: Homo sapiens, MOLM-13, MOLM-13; variable VdU/VdA alone or with 1 μM PINK added 24 h post nucleoside addition; read-out: IC50 value (48 h) for sequential addition
Procedure: From the single toxicity experiment, it was determined that the optimal subtoxic concentration of PINK to be used for the combination toxicity assays would be 1 μM. To test how effective the vinyl-nucleosides (VdU/VdA) in combination with PINK are at killing the cells compared to the vinyl-nucleosides alone, another resazurin reduction assay was carried out.
Resazurin Combination toxicity assays. MV4-11, MOLM-13 and Jurkat cells were seeded in 96-well plates at a density of 20 000 cells/well, 25 000 cells/well and 30 000 cells/well, respectively, in triplicates. For the sequential addition, the cells were first treated with the nucleosides (VdU/VdA) diluted in fresh media in 1:4 serial dilutions (˜0.01% DMSO) at concentrations of 500-0 μM, and incubated overnight. 24h post nucleoside addition, the cells were treated with 1 μM PINK diluted in fresh media (˜1% DMSO), and incubated for 24-72h. The cells were treated with resazurin, incubated and measured, as described above. For the simultaneous addition, the cells were treated with nucleosides and PINK on the same day at the same concentrations as describes above, and incubated for 24-72h.

Jurkat cells = assay: Cell counting assay (Trypan Blue); assay type: cell-based, human; details: 10 μM nucleoside, 1 μM PINK
Procedure: (§1) To confirm the cytotoxicity results obtained from the resazurin assays, a cell counting assay was conducted using Trypan Blue. It is an azo dye allows to discriminate between viable cells and dead cells, since dead cells will take in the dye, while viable cells will remain white. 28 From the resazurin assays, and after some optimization based on cell sensitivity to the vinyl-nucleosides, it was determined that […] and 5 μM of vinyl-nucleosides alone and in combination with 1 μM of PINK were two interesting concentrations to explore in Jurkat, MV4-11, and MOLM-13 cells. Cells were incubated with 5 μM or 10 μM of each nucleoside overnight (Day 0), and 1 μM of PINK was added for the combinations and PINK alone 24h post nucleoside incubation (Day 1). The cells were counted every 24h.
(§2) Cell Counting Assay. Jurkat, MV4-11 and MOLM-13 cells were seeded in 12-well plates at a density of 500 000 cells/mL, 175 000 cells/mL and 375 000 cells/mL, respectively, in duplicates. The cells were incubated overnight in fresh media containing 10 μM (Jurkat) or 5 μM (MV4-11 and MOLM-13) of each nucleoside (˜0.01% DMSO). 24h post nucleoside addition, 1 μM of PINK (˜0.01% DMSO) were added to the respective wells and incubated for 24 h. The cells were counted using a cell counter (BIO RAD TC20) to determine the percentage of viable cells and the cell concentration. The cells were counted every 24h using Trypan Blue in a 1:1 ratio.

MOLM-13 cells [2] = assay: Cell counting assay (Trypan Blue); assay type: cell-based, human; details: MOLM-13, 5 μM nucleoside, 1 μM PINK
Procedure: as §1, §2

MV4-11 cells = assay: Cell counting assay (Trypan Blue); assay type: cell-based, human; details: MV4-11, 5 μM nucleoside, 1 μM PINK
Procedure: as §1, §2

[3] = tested on: VdU-labeled DNA in living Hela cells; assay: Live-cell metabolic labeling, PINK staining kinetics; assay type: cell-based
Procedure: To evaluate the ability of PINK to enter live cells and undergo fluorogenic reactions with vinyl groups in native chromatin, Hela cells were grown in rich media containing 10 μM VdU for 15 h and subsequently stained with 1-2 μM PINK for 4 h. Total cellular DNA was counterstained with Hoechst […] (5 μM; 405 nm laser; emission 410-480 nm) for 10 minutes prior to imaging PINK (514 nm laser; emission 570-700 nm). Control (ctrl) samples were treated with PINK but not VdU. All cells were treated and maintained in DMEM media containing 10% FBS and grown in 5% CO2 at 37° C. Live cell images were acquired using a confocal microscope.
The intracellular reaction kinetics of PINK staining was next investigated. Cells were seeded at a concentration of 2.5×10^4 cells/mL, allowed to settle overnight, and incubated with 100 μM VdU for 24 h. Cells were stained with 10 μM PINK between 10 min and 25 h, co-stained with Hoechst 33342 (5 μg/mL), and images were acquired on a confocal microscope. Samples were optimized for an ideal signal to noise ratio after staining for 1 h, illustrating a sufficiently bright signal at this stage. Ctrl samples were exposed to PINK for 25 h, thus explaining the relatively high background. […] Labeling was efficient in multiple cell lines. U2OS cells were seeded in μ-slide 8-well (Ibidi®) (3.0×10^4 cells in 200 μL; 1.5×10^5 cells/mL) in DMEM and given 20 h to settle. Cells were aspirated and VdU (0-100 μM in 200 μL DMEM) was added. Cells were incubated for 18 h, aspirated, and PINK (5 μM in 200 μL DMEM, 0.05% DMSO) was added. Cells were incubated for 5 h, aspirated, and Hoechst 33342 (2 μg/mL in 200 μL DMEM) was added for 15 min. Cells were aspirated and the media was exchanged for 200 μL DMEM (-Phenol Red). Images were acquired on a confocal microscope (FIG. 11). […] Cells (5.0×10^4 cells/mL) were seeded and allowed to settle overnight. Cells were incubated with 20 μM VdU for 16 h and stained with 2 μM PINK for 5 h, Cells were aspirated and fresh media (w/o Phenol Red) was added. Control Samples received identical treatment, but were not exposed to VdU. […]

[4] = 100 μM VdU 24 h, then 10 μM PINK

| SMILES | IC50 (MOLM-13 cells [1]) [µM] | cell concentration (cell growth) (Jurkat cells) | cell concentration (cell growth) (MOLM-13 cells [2]) | cell concentration (cell growth) (MV4-11 cells) | retention of fluorescent signal in living cells ([3]; 20 μM VdU 16 h, 2 μM PINK 5 h, fresh media, t=0, 24 h) | incubation time after which a clear signal above background is observed [3, 4] [h] | staining duration ideal to achieve complete labeling [3, 4] [h] |
| --- | --- | --- | --- | --- | --- | --- | --- |
| C=Cc1cn([C@H]2C[C@H](O)[C@@H](CO)O2)c(=O)[nH]c1=O [VdU, 5-vinyl-2′-deoxyuridine] | 18 | more impact on cell growth than expected from the resazurin assay | seem to inhibit cell growth | significantly inhibited cell growth | – | – | – |
| Cc1nnc(-c2ccc3cc4ccc(N(C)C)cc4nc3c2)nn1 [PINK] | – | – | – | – | retained in living cells 24 h after being removed from the media | 1 | 5 |
